Data: US20030129629A1, “Methods and compositions for the identification, assessment, prevention, and therapy of human cancers” (Millennium Pharmaceuticals, Inc., priority 2000, published 2003)
Several values for one entry are separate records, joined by “and”; a condition that tells them apart may be missing. Identical values can stand only once. Like-named read-outs stand apart in the source and are kept apart here.

System: 60 cancer cell lines (NCI 60 cancer cell line series)
Experiment: NCI-DTP in vitro cancer screen, sulforhodamine B (SRB) growth inhibition, 48 hour exposure
Type: cell-based, human
Experimental: Cancer Cell Line Preparation. Sixty cancer cell lines were obtained from the National Cancer Institute Developmental Therapeutics Program (NCI-DTP). Procedures for growing cells and testing compounds have been described previously (Scudiero et al., Cancer Res. 1988, 48:4827-4833; Stinson et al., Anticancer Res.; Myers et al., Electrophoresis 1997, 18:647-653). Cells are plated on day 0 at a density individualized for each cell line so that they will generally be sub-confluent at the end of the assay period. On day 1, a compound is added in the format for a duplicate-well, 5-dose, ten-fold interval dose response study.
No-drug, no-cell and no-growth controls are included. On day 3 the cells are processed for staining with sulforhodamine B (SRB), which reflects the amount of cell mass present at the end of a 48 hour exposure to the test agent. From dose response curves based on the SRB data, various parameters can be determined. […] More precisely, the quantity used in the calculation to be described is the potency measure −log{GI50}.
Activity database (A). […] This subset of compounds was selected from the larger 23,000 compound database available from the DTP. The compounds were selected on the basis of their known mechanism of action and chemical structure. The average potency −log{GI50} was extracted from the comma-delimited text files available through the Web at http://www.nci.nih.gov/intra/lmp/jnwbio.html. Subsequently, these −log{GI50} values were inspected manually and classified as indicating either Low, Medium or High sensitivity to each compound.

`O=C(O)CCCc1ccc(N(CCCl)CCCl)cc1` [Chlorambucil] was tested, and the “classification of cell line as Low(1), Medium(2), High(3) sensitivity to compound” value (“classification of cell line” below) was 2 and 3 and 1, the “classification of cell line” value (Breast BT-549 CL5013) was 1 and the “classification of cell line” value (Breast HS-578T CL5006) was 1. The “classification of cell line” value (Breast MCF7(I) CL5001) was 2, the “classification of cell line” value (Breast MCF7/ADRr CL5002) was 2 and the “classification of cell line” value (Breast MDA-MB-231 CL5005) was 1. For the same compound, the “classification of cell line” value (Breast MDA-MB-435 CL5011) was 1, the “classification of cell line” value (Breast MDA-N CL5012) was 1 and the “classification of cell line” value (Breast T-47D CL5014) was 2. The “classification of cell line” value (Colon COLO-250 CL4010) was 1, the “classification of cell line” value (Colon HCC-2998 CL4002) was 1 and the “classification of cell line” value (Colon HCT-15 CL4015) was 2. For the same compound, the “classification of cell line” value (Colon HCT-116 CL4003) was 1, the “classification of cell line” value (Colon HT29(I) CL4001) was 1 and the “classification of cell line” value (Colon KM12 CL4017) was 1. The “classification of cell line” value (Colon SW-620 CL4009) was 2, the “classification of cell line” value (Leukemia CCRF-CEM(I) CL7003) was 3 and the “classification of cell line” value (Leukemia HL-60(I) CL7008) was 3. For the same compound, the “classification of cell line” value (Leukemia K562(I) CL7005) was 1, the “classification of cell line” value (Leukemia MOLT-4 CL7006) was 3 and the “classification of cell line” value (Leukemia RPMI-8226(I) CL7010) was 2. The “classification of cell line” value (Leukemia SR CL7019) was 3, the “classification of cell line” value (Melanoma LOX IMVI CL10001) was 2 and the “classification of cell line” value (Melanoma M14 CL10014) was 2. For the same compound, the “classification of cell line” value (Melanoma MALME-3M CL10002) was 2, the “classification of cell line” value (Melanoma SK-MEL-2 CL10005) was 1 and the “classification of cell line” value (Melanoma SK-MEL-5 CL10007) was 2. For the same compound, the “classification of cell line” value (Melanoma SK-MEL-28 CL10008) was 1, the “classification of cell line” value (Melanoma UACC-62 CL10020) was 3 and the “classification of cell line” value (Melanoma UACC-257 CL10021) was 2. For the same compound, the “classification of cell line” value (NSCLC A549/ATCC CL1004) was 2, the “classification of cell line” value (NSCLC EKVX CL1008) was 1 and the “classification of cell line” value (NSCLC HOP-62 CL1026) was 2. For the same compound, the “classification of cell line” value (NSCLC HOP-92 CL1029) was 2, the “sensitivity classification Low(1)/Medium(2)/High(3)” value (NSCLC NCI-H23(I) CL1001) was 2 and the “classification of cell line” value (NSCLC NCI-H226 CL1013) was 2. For the same compound, the “sensitivity classification Low(1)/Medium(2)/High(3)” value (NSCLC NCI-H332M CL1017) was 1, the “sensitivity classification Low(1)/Medium(2)/High(3)” value (NSCLC NCI-H460 CL1021) was 3 and the “sensitivity classification Low(1)/Medium(2)/High(3)” value (NSCLC NCI-H522 CL1003) was 2. The “sensitivity classification Low(1)/Medium(2)/High(3)” value (Ovarian IGROV1 CL6010) was 1, the “sensitivity classification Low(1)/Medium(2)/High(3)” value (Ovarian OVCAR-3 CL6001) was 1 and the “sensitivity classification Low(1)/Medium(2)/High(3)” value (Ovarian OVCAR-4 CL6002) was 1. The “sensitivity classification Low(1)/Medium(2)/High(3)” value (Ovarian OVCAR-5 CL6003) was 1, the “sensitivity classification Low(1)/Medium(2)/High(3)” value (Ovarian OVCAR-8 CL6005) was 2 and the “sensitivity classification Low(1)/Medium(2)/High(3)” value (Ovarian SK-OV-3 CL6011) was 1. The “sensitivity classification Low(1)/Medium(2)/High(3)” value (Prostate DU-145 CL11003) was 2, the “sensitivity classification Low(1)/Medium(2)/High(3)” value (Prostate PC-3(I) CL11001) was 1 and the “sensitivity classification Low(1)/Medium(2)/High(3)” value (Renal 786-0 CL9018) was 2. For the same compound, the “sensitivity classification Low(1)/Medium(2)/High(3)” value (Renal A498 CL9013) was 1, the “sensitivity classification Low(1)/Medium(2)/High(3)” value (Renal ACHN CL9023) was 3 and the “sensitivity classification Low(1)/Medium(2)/High(3)” value (Renal CAKI-1 CL9015) was 3. For the same compound, the “sensitivity classification Low(1)/Medium(2)/High(3)” value (Renal RXF-393 CL9016) was 2, the “sensitivity classification Low(1)/Medium(2)/High(3)” value (Renal SN12C CL9008) was 2 and the “sensitivity classification Low(1)/Medium(2)/High(3)” value (Renal TK10 CL9024) was 1. For the same compound, the “sensitivity classification Low(1)/Medium(2)/High(3)” value (Renal UO-31 CL9004) was 2.

In the case of `NC(=O)NO` [Hydroxyurea], the “classification of cell line” value (Breast BT-549 CL5013) is reported as 1, the “classification of cell line” value (Breast HS-578T CL5006) is reported as 2 and the “classification of cell line” value (Breast MCF7(I) CL5001) is reported as 2. For the same compound, the “classification of cell line” value (Breast MCF7/ADRr CL5002) was 2, the “classification of cell line” value (Breast MDA-MB-231 CL5005) was 1 and the “classification of cell line” value (Breast MDA-MB-435 CL5011) was 1. For the same compound, the “classification of cell line” value (Breast MDA-N CL5012) was 1, the “classification of cell line” value (Breast T-47D CL5014) was 1 and the “classification of cell line” value (CNS SF-268 CL12014) was 2. For the same compound, the “classification of cell line” value (CNS SF-295 CL12015) was 3, the “classification of cell line” value (CNS SF-539 CL12016) was 3 and the “classification of cell line” value (CNS SNB-19 CL12002) was 1. For the same compound, the “classification of cell line” value (CNS SNB-75(I) CL12005) was 2, the “classification of cell line” value (CNS U251(I) CL12009) was 2 and the “classification of cell line” value (Colon COLO-250 CL4010) was 1. For the same compound, the “classification of cell line” value (Colon HCC-2998 CL4002) was 2, the “classification of cell line” value (Colon HCT-15 CL4015) was 2 and the “classification of cell line” value (Colon HCT-116 CL4003) was 2. For the same compound, the “classification of cell line” value (Colon HT29(I) CL4001) was 2, the “classification of cell line” value (Colon KM12 CL4017) was 2 and the “classification of cell line” value (Colon SW-620 CL4009) was 2. For the same compound, the “classification of cell line” value (Leukemia CCRF-CEM(I) CL7003) was 3, the “classification of cell line” value (Leukemia HL-60(I) CL7008) was 3 and the “classification of cell line” value (Leukemia K562(I) CL7005) was 2. The “classification of cell line” value (Leukemia MOLT-4 CL7006) was 3, the “classification of cell line” value (Leukemia RPMI-8226(I) CL7010) was 3 and the “classification of cell line” value (Leukemia SR CL7019) was 3. The “classification of cell line” value (Melanoma LOX IMVI CL10001) was 2, the “classification of cell line” value (Melanoma M14 CL10014) was 2 and the “classification of cell line” value (Melanoma MALME-3M CL10002) was 2. The “classification of cell line” value (Melanoma SK-MEL-2 CL10005) was 1, the “classification of cell line” value (Melanoma SK-MEL-5 CL10007) was 2 and the “classification of cell line” value (Melanoma SK-MEL-28 CL10008) was 1. The “classification of cell line” value (Melanoma UACC-62 CL10020) was 3, the “classification of cell line” value (Melanoma UACC-257 CL10021) was 1 and the “classification of cell line” value (NSCLC A549/ATCC CL1004) was 2. The “classification of cell line” value (NSCLC EKVX CL1008) was 1, the “classification of cell line” value (NSCLC HOP-62 CL1026) was 2 and the “classification of cell line” value (NSCLC HOP-92 CL1029) was 2. The “sensitivity classification Low(1)/Medium(2)/High(3)” value (NSCLC NCI-H23(I) CL1001) was 2, the “classification of cell line” value (NSCLC NCI-H226 CL1013) was 2 and the “sensitivity classification Low(1)/Medium(2)/High(3)” value (NSCLC NCI-H332M CL1017) was 1. For the same compound, the “sensitivity classification Low(1)/Medium(2)/High(3)” value (NSCLC NCI-H460 CL1021) was 3, the “sensitivity classification Low(1)/Medium(2)/High(3)” value (NSCLC NCI-H522 CL1003) was 2 and the “sensitivity classification Low(1)/Medium(2)/High(3)” value (Ovarian IGROV1 CL6010) was 2. For the same compound, the “sensitivity classification Low(1)/Medium(2)/High(3)” value (Ovarian OVCAR-3 CL6001) was 2, the “sensitivity classification Low(1)/Medium(2)/High(3)” value (Ovarian OVCAR-4 CL6002) was 1 and the “sensitivity classification Low(1)/Medium(2)/High(3)” value (Ovarian OVCAR-5 CL6003) was 2. For the same compound, the “sensitivity classification Low(1)/Medium(2)/High(3)” value (Ovarian OVCAR-8 CL6005) was 2, the “sensitivity classification Low(1)/Medium(2)/High(3)” value (Ovarian SK-OV-3 CL6011) was 1 and the “sensitivity classification Low(1)/Medium(2)/High(3)” value (Prostate DU-145 CL11003) was 2. For the same compound, the “sensitivity classification Low(1)/Medium(2)/High(3)” value (Prostate PC-3(I) CL11001) was 2, the “sensitivity classification Low(1)/Medium(2)/High(3)” value (Renal 786-0 CL9018) was 2 and the “sensitivity classification Low(1)/Medium(2)/High(3)” value (Renal A498 CL9013) was 2. The “sensitivity classification Low(1)/Medium(2)/High(3)” value (Renal ACHN CL9023) was 3, the “sensitivity classification Low(1)/Medium(2)/High(3)” value (Renal CAKI-1 CL9015) was 3 and the “sensitivity classification Low(1)/Medium(2)/High(3)” value (Renal RXF-393 CL9016) was 2. For the same compound, the “sensitivity classification Low(1)/Medium(2)/High(3)” value (Renal SN12C CL9008) was 2, the “sensitivity classification Low(1)/Medium(2)/High(3)” value (Renal TK10 CL9024) was 1 and the “sensitivity classification Low(1)/Medium(2)/High(3)” value (Renal UO-31 CL9004) was 2.
